Marks after values point to notes of the source that are not given here. Each block holds one molecule with its values, some of them ahead of it.
Assays:
[1] = tested on: radiolabeled mAb-conjugates; assay: In vitro Label release from radiolabeled mAb-TCO-chelate conjugates incubated with Cleaving Agents (SEC); settings: 37°C, 15-24 h; for release (%) without Cleaving Agent: no Cleaving Agent
Procedure: Briefly, mAb solutions in PBS (4 mg/mL final concentration) were added with 15-20 eq of the NHS-derivative (dissolved at 10 mg/mL in DMSO) and the pH was adjusted to 9 with 1M sodium carbonate. The reaction mixtures were incubated at rt in the dark for 2 h then the products were purified by dialysis (20 kDa MW cut-off membranes) in chelex-treated 0.25M NH4OAc pH 5.5.
After 15-24 h incubation the mixtures were analyzed by SEC and the amount of released Label was quantified from the radioactivity elution profile.

[2] = ^111In biodistribution in normal mice after ^111In-trastuzumab-1.8 followed by 2.10 or vehicle; assay type: in vivo
[3] = Radioactivity in blood and tumors stated jointly for LS174T and BT-474 tumor-bearing mice (^111In-trastuzumab-1.8, 2.10); assay type: in vivo; settings: ^111In-trastuzumab-1.8 followed by 2.10 48 h post-injection
Procedure: Female Balb/C mice were injected ca 1 million LS174T colon carcinoma cells or 10 million BT-474 breast cancer cells s.c. in the flank. […] Control groups were euthanized 72 h post-mAb injection.

[4] = Label release from TCO derivative 1.14 on CC49, ^89Zr, PBS
[5] = Label release from TCO derivative 1.15 on CC49, ^89Zr, PBS
[6] = Label release from TCO derivative 1.17 on CC49, ^89Zr, PBS
[7] = Label release from TCO derivative 1.2 on trastuzumab, ^111In, 50% mouse plasma in PBS
[8] = Label release from TCO derivative 1.2 on trastuzumab, ^111In, PBS
[9] = Label release from TCO derivative 1.4 on trastuzumab, ^111In, PBS
[10] = Label release from TCO derivative 1.8 on trastuzumab, ^111In, 50% mouse plasma in PBS
[11] = Label release from TCO derivative 1.8 on trastuzumab, ^111In, PBS
[12] = Label release from TCO derivative 1.8 on trastuzumab, ^177Lu, PBS
[13] = ^111In-trastuzumab-1.8 followed by 2.10 1 h post-mAb, euthanized 24 h later, SD, n = 4
[14] = ^111In-trastuzumab-1.8 followed by 2.10 24 h post-mAb, euthanized 24 h later, SD, n = 4
[15] = TCO derivative conjugated to trastuzumab, ^111In, 50% mouse plasma in PBS
[16] = TCO derivative conjugated to trastuzumab, ^111In, PBS
[17] = Label release from TCO derivative 1.17 on trastuzumab, ^89Zr, PBS
[18] = Label release from TCO derivative 1.4 on trastuzumab, ^111In, 50% mouse plasma in PBS

- reduction in blood radioactivity with respect to control mice ([2]; ^111In-trastuzumab-1.8 (ca. 0.5 mg/kg) followed by 2.10 (ca. 33.5 μmol/kg) either 1 h or 24 h post-mAb, 24 h after Cleaving Agent): ca. 70%
- ^111In biodistribution, Blood [2, 13]: 3.61 ± 0.44 % injected dose per gram
- ^111In biodistribution, Bone [2, 13]: 0.44 ± 0.03 % injected dose per gram
- ^111In biodistribution, Brain [2, 13]: 0.13 ± 0.08 % injected dose per gram
- ^111In biodistribution, Heart [2, 13]: 0.87 ± 0.10 % injected dose per gram
- ^111In biodistribution, Kidney L [2, 13]: 5.39 ± 0.84 % injected dose per gram
- ^111In biodistribution, Lg. intestine [2, 13]: 0.34 ± 0.07 % injected dose per organ
- ^111In biodistribution, Liver [2, 13]: 3.35 ± 0.10 % injected dose per gram
- ^111In biodistribution, Lung [2, 13]: 1.94 ± 0.43 % injected dose per gram
- ^111In biodistribution, Muscle [2, 13]: 0.27 ± 0.02 % injected dose per gram
- ^111In biodistribution, Sm. Intestine [2, 13]: 0.61 ± 0.04 % injected dose per organ
- ^111In biodistribution, Spleen [2, 13]: 1.19 ± 0.16 % injected dose per gram
- ^111In biodistribution, Blood [2, 14]: 2.91 ± 0.53 % injected dose per gram
- ^111In biodistribution, Bone [2, 14]: 0.65 ± 0.03 % injected dose per gram
- ^111In biodistribution, Brain [2, 14]: 0.11 ± 0.02 % injected dose per gram
- ^111In biodistribution, Heart [2, 14]: 0.93 ± 0.09 % injected dose per gram
- ^111In biodistribution, Kidney L [2, 14]: 4.75 ± 0.45 % injected dose per gram
- ^111In biodistribution, Lg. intestine [2, 14]: 0.56 ± 0.14 % injected dose per organ
- ^111In biodistribution, Liver [2, 14]: 4.68 ± 1.11 % injected dose per gram
- ^111In biodistribution, Muscle [2, 14]: 0.29 ± 0.05 % injected dose per gram
- ^111In biodistribution, Sm. Intestine [2, 14]: 1.04 ± 0.21 % injected dose per organ
- ^111In biodistribution, Spleen [2, 14]: 1.89 ± 0.17 % injected dose per gram
- radioactivity uptake in tumors versus control mice ([3]; euthanized 24 h later): somewhat lower
- radioactivity in blood ([3]; euthanized 24 h later (LS174T or BT-474)): 2-3 % ID/g
Structure (SMILES): O=C(CCCC(=O)Nc1cnccc1-c1nnc(-c2ccncc2NC(=O)CCCC(=O)NCCOCCOCCOCCOCCOCCOCCOCCOCCOCCO)nn1)NCCOCCOCCOCCOCCOCCOCCOCCOCCOCCO [Compound 2.10, N^1,N^1′-(4,4′-(1,2,4,5-Tetrazine-3,6-diyl)bis(pyridine-4,3-diyl))bis(N^5-(29-hydroxy-3,6,9,12,15,18,21,24,27-nonaoxanonacosyl)glutaramide)]
- release (%) [1, 4]: 45.2%
- release (%) [1, 5]: 50.0%
- release (%) [1, 6]: 50.0%
- release (%) [1, 7]: 52.2%
- release (%) [1, 8]: 53.4%
- release (%) [1, 9]: 57.9%
- release (%) ([1]; Label release from TCO derivative 1.8 on CC49, ^111In, PBS): 79.9%
- release (%) ([1]; Label release from TCO derivative 1.8 on cetuximab, ^111In, PBS): 84.9%
- release (%) ([1]; Label release from TCO derivative 1.8 on girentuximab, ^111In, PBS): 83.6%
- release (%) ([1]; Label release from TCO derivative 1.8 on rituximab, ^111In, PBS): 82.5%
- release (%) [1, 10]: 82.4, 82.4^a %
- release (%) [1, 11]: 82.4, 82.4^a %
- release (%) [1, 12]: 81.2%

Structure (SMILES): CC(=O)N(O)CCCCCNC(=O)CCC(=O)N(O)CCCCCNC(=O)CCC(=O)N(O)CCCCCNC(=O)CN(C)C(=O)O[C@@H]1/C=C/CC[C@](C)(C(=O)ON2C(=O)CCC2=O)CC1 [Compound 1.15, NHS-TCO-Sar-DFO]
- release (%) without Cleaving Agent ([1]; TCO derivative conjugated to CC49, ^89Zr, PBS): 7.3%

Structure (SMILES): NCc1ccc(-c2nncnn2)cc1 [Compound 2.16, reference compound]
- release (%) [1, 11]: 64.5%

Structure (SMILES): CC(=O)N[C@H]1C(OCCOCCOCCn2cc(COCCC(=O)NCCCCC(NC(=O)CCOCc3cn(CCOCCOCCOC4O[C@H](CO)[C@H](O)[C@H](O)[C@H]4NC(C)=O)nn3)C(=O)NCc3ccc(-c4nncnn4)cc3)nn2)O[C@H](CO)[C@H](O)[C@@H]1O (some centres unmarked) [Compound 2.11, Tetrazine-bis-GalNAc]
- release (%) [1, 11]: 67.2%

Structure (SMILES): C[C@]1(C(=O)ON2C(=O)CCC2=O)CC/C=C/[C@@H](OC(=O)NCCNC(=O)CCC(C(=O)O)N2CCN(CC(=O)O)CCN(CC(=O)O)CCN(CC(=O)O)CC2)CC1 (some centres unmarked) [Compound 1.4, NHS-TCO-C2-DOTAGA]
- release (%) without Cleaving Agent [1, 15]: 7.1%
- release (%) without Cleaving Agent [1, 16]: 6.8%

Structure (SMILES): Cc1nnc(C)nn1 [Compound 2.13, reference compound]
- release (%) [1, 4]: 53.6%
- release (%) [1, 5]: 66.3%
- release (%) [1, 6]: 72.3%
- release (%) [1, 17]: 84.4%
- release (%) [1, 18]: 62.9^a %
- release (%) ([1]; Label release from TCO derivative 1.4 on trastuzumab, ^177Lu, PBS): 69.5%
- release (%) [1, 11]: 71.4%
- release (%) [1, 12]: 88.9%

Structure (SMILES): Cc1nnc(-c2nccc(CNC(=O)CCCC(=O)NC(CO)CO)n2)nn1 [Compound 2.20]
- release (%) [1, 11]: 67.2%

Structure (SMILES): Oc1cnccc1-c1nnc(-c2ccncc2O)nn1 [Compound 2.2, 4,4′-(1,2,4,5-Tetrazine-3,6-diyl)bis(pyridin-3-ol)]
- release (%) [1, 4]: 60.3%
- release (%) [1, 5]: 65.8%
- release (%) [1, 6]: 87.2%
- release (%) [1, 17]: 61.4%
- release (%) [1, 9]: 69.5%
- release (%) [1, 11]: 81.6%

Structure (SMILES): CC(=O)Nc1cccnc1-c1nnc(-c2ncccc2NC(C)=O)nn1 [Compound 2.4, N,N′-(2,2′-(1,2,4,5-Tetrazine-3,6-diyl)bis(pyridine-3,2-diyl))diacetamide]
- release (%) [1, 10]: 54.5^a %

Structure (SMILES): CN(CC(=O)NCCOCCOCCOCCOCCNC(=O)CCC(C(=O)O)N1CCN(CC(=O)O)CCN(CC(=O)O)CCN(CC(=O)O)CC1)C(=O)O[C@@H]1/C=C/CC[C@](C)(C(=O)NCCOCCOCCOCCOCCOCCOCCOCCOCCOCCNC(=O)CCN2C(=O)C=CC2=O)CC1 (some centres unmarked) [Compound 1.8, Mal-PEG9-TCO-Sar-PEG4-DOTAGA]
- release (%) without Cleaving Agent [1, 15]: 6.6%
- release (%) without Cleaving Agent [1, 16]: 5.8%

Structure (SMILES): O=C(O)CCCC(=O)Nc1cnccc1-c1nnc(-c2ccncc2NC(=O)CCCC(=O)O)nn1 [Compound 2.9, 5,5′-((4,4′-(1,2,4,5-Tetrazine-3,6-diyl)bis(pyridine-4,3-diyl))bis(azanediyl))bis(5-oxopentanoic acid)]
- release (%) [1, 10]: 67.0^a %

Structure (SMILES): Oc1cccnc1-c1nnc(-c2ncccc2O)nn1 [Compound 2.1, 2,2′-(1,2,4,5-Tetrazine-3,6-diyl)bis(pyridin-3-ol)]
- release (%) [1, 4]: 53.0%
- release (%) [1, 5]: 62.3%
- release (%) ([1]; Label release from TCO derivative 1.17 on CC49, ^89Zr, 50% mouse plasma in PBS): 81.3%
- release (%) [1, 6]: 88.0%
- release (%) [1, 17]: 88.9%
- release (%) ([1]; Label release from TCO derivative 1.2 on CC49, ^111In, PBS): 80.3%
- release (%) ([1]; Label release from TCO derivative 1.2 on cetuximab, ^111In, PBS): 85.7%
- release (%) ([1]; Label release from TCO derivative 1.2 on girentuximab, ^111In, PBS): 83.2%
- release (%) ([1]; Label release from TCO derivative 1.2 on rituximab, ^111In, PBS): 77.9%
- release (%) [1, 7]: 88.1%
- release (%) [1, 8]: 78.2%
- release (%) [1, 18]: 81.8^a %
- release (%) ([1]; Label release from TCO derivative 1.6 on trastuzumab, ^111In, 50% mouse plasma in PBS): 68.9%
- release (%) ([1]; Label release from TCO derivative 1.6 on trastuzumab, ^111In, PBS): 83.6%
- release (%) ([1]; Label release from TCO derivative 1.7 on trastuzumab, ^111In, 50% mouse plasma in PBS): 63.4%
- release (%) ([1]; Label release from TCO derivative 1.7 on trastuzumab, ^111In, PBS): 78.9%
- release (%) [1, 10]: 77.0%
- release (%) [1, 11]: 86.4%

Structure (SMILES): Cc1nnc(-c2ncccn2)nn1 [Compound 2.19, reference compound]
- release (%) [1, 11]: 69.1%

Structure (SMILES): O=C(CCCC(=O)Nc1cccnc1-c1nnc(-c2ncccc2NC(=O)CCCC(=O)NCCOCCOCCOCCOCCOCCOCCOCCOCCOCCO)nn1)NCCOCCOCCOCCOCCOCCOCCOCCOCCOCCO [Compound 2.8, N^1,N^1′-(2,2′-(1,2,4,5-Tetrazine-3,6-diyl)bis(pyridine-3,2-diyl))bis(N^5-(29-hydroxy-3,6,9,12,15,18,21,24,27-nonaoxanonacosyl)glutaramide)]
- release (%) [1, 10]: 60.6%
- release (%) [1, 11]: 79.9%

Structure (SMILES): c1ccc(-c2nnc(-c3ccccn3)nn2)nc1 [Compound 2.14, reference compound]
- release (%) [1, 11]: 51.5%

From US20220331458A1, “AGENTS FOR CLEAVING LABELS FROM BIOMOLECULES IN VIVO” (TAGWORKS PHARMACEUTICALS B.V., priority 2019, published 2022)
